Where two headings read alike, the source gives them in different places.
What was measured:
[1] = tested on: adult male Blatella germanica; assay: Cockroach assay of Table 16 (title contact assay, text feeding assay); format: in vivo; details: 200 mM compound
From the text: (§1) A series of whole organism bioassays was developed to further evaluate the toxicity of chemistries to a range of agricultural, veterinary and public health pests and non-target insects (Tables 12 and 13). These assays are designed to rapidly explore the biological activity spectrum of chemistries as well as to facilitate initial investigations of the mode of action of insecticidal compounds. Briefly, assays were developed for the German cockroach (Blatella germanica, urban pest), termite (Reticulitermes flavipes; urban pest), lone star tick (Amblyomma americana; veterinary and public health pest), soybean aphid (Aphis glycines, agricultural pest) and honeybee (Apis mellifera; beneficial, non-target insect). The assays were designed to test the toxicity and speed of kill of multiple chemistries on contact. Each of these assays was performed as a single point dose experiment in triplicate using either topical application of compound to the ventral thorax ([…]; 50-80 μg effective dose depending on compound) as is the case for our cockroach and honeybee assays, or 10 second immersion in a solution of the compound diluted in water or DMSO:EtOH to a final concentration of 100 μM. The assays were conducted in 24-well plate format with mortality assessment following incubation at 22° C. as described above. Commercial insecticides were incorporated in these assays to provide a positive control and permit initial comparative analyses. Lead chemistries identified in our in vivo screen have been evaluated in the cockroach and termite assays.

[2] = tested on: Ae. aegypti L3 larvae; assay: whole plant or invertebrate; details: Aedes aegypti
[3] = target: T1, Isdop2 (Ixodes scapularis, UniProt A0ACM8DGL0); assay: cell-based; details: for inhibition at 10 µM: read-out: % Inhibition (of response to dopamine), Isdop2 screen
T1 sequence (A0ACM8DGL0 entry or part of it): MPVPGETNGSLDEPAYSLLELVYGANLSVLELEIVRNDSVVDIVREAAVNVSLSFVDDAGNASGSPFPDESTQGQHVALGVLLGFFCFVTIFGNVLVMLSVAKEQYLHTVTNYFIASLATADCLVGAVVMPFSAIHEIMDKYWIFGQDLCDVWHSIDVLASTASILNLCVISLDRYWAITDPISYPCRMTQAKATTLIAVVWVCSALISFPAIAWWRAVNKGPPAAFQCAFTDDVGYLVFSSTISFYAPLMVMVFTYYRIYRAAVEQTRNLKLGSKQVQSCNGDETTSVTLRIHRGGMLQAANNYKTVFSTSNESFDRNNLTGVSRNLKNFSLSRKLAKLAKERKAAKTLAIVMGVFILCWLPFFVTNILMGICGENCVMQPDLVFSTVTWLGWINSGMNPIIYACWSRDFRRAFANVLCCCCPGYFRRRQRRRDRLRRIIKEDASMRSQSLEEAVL

[4] = tested on: Ae. aegypti L3 larvae; assay: Ae. aegypti L3 concentration response and time course assays; format: in vivo, Aedes aegypti; details: 400 μM, L3 larval time course assay
Procedure: Briefly, chemistries were diluted to appropriate concentration in water and added to the wells of 24-well plates containing 5 L3 stage Ae. aegypti larvae to achieve a final concentration of 400, 200, 100, 50 and 25 μM in 1 ml sterile RO water. Chemistries were tested in quadruplicate at each concentration. […] Results reported here represent a minimum of three independent CRC experiments (i.e., n=3).

[5] = target: T2, AaDOP2 (Aedes aegypti, UniProt H6D5H2); assay: HTRF cAMP accumulation concentration response assay (Cisbio Dynamic 2); format: cell-based; details: AaDOP2 expressing cells in the presence of dopamine; No Inhibition = <10% inhibition at 3 μM test compound; read-out: IC50 ± S.E.M. (nM), HTRF cAMP assay
T2 sequence (H6D5H2 entry or part of it): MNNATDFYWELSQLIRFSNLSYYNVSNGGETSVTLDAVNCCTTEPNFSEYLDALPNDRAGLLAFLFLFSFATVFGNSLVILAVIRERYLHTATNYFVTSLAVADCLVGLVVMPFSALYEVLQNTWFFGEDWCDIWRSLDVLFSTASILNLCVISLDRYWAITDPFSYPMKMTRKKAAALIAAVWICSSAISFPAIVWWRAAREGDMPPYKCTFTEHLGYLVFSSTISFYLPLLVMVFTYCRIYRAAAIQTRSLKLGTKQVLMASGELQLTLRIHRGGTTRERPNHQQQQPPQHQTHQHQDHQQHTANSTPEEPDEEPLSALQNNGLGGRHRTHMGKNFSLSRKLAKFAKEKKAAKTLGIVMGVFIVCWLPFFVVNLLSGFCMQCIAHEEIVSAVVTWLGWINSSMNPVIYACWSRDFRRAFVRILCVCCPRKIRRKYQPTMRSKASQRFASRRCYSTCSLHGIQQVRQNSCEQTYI

[6] = target: T2, AaDOP2; assay: LOPAC1280 antagonist screen in HEK-CRELuc-Aadop2 cells; format: cell-based; details: for % of the SCH23390 effect: 10 μM compound, 300 nM dopamine, quadruplicate; for % inhibition of DA activity (Aedes cell-based assay screen): LOPAC1280 screen hits
[7] = tested on: adult male Blatella germanica; assay: Cockroach contact assay (topical application); format: in vivo; details: 200 mM compound
From the text: as §1

[8] = tested on: adult Reticulitermes flavipes; assay: Termite immersion assay; format: in vivo
From the text: A series of whole organism bioassays was developed to further evaluate the toxicity of chemistries to a range of agricultural, veterinary and public health pests and non-target insects (Tables 12 and 13). These assays are designed to rapidly explore the biological activity spectrum of chemistries as well as to facilitate initial investigations of the mode of action of insecticidal compounds. Briefly, assays were developed for the German cockroach (Blatella germanica, urban pest), termite (Reticulitermes flavipes; urban pest), lone star tick (Amblyomma americana; veterinary and public health pest), soybean aphid (Aphis glycines, agricultural pest) and honeybee (Apis mellifera; beneficial, non-target insect). The assays were designed to test the toxicity and speed of kill of multiple chemistries on contact. Each of these assays was performed as a single point dose experiment in triplicate using either topical application of compound to the ventral thorax (1 μl of a […] compound solution in 1:1 v:v DMSO:EtOH vehicle; 50-80 μg effective dose depending on compound) as is the case for our cockroach and honeybee assays, or 10 second immersion in a solution of the compound diluted in water or DMSO:[…] The assays were conducted in 24-well plate format with mortality assessment following incubation at 22° C. as described above. Commercial insecticides were incorporated in these assays to provide a positive control and permit initial comparative analyses. Lead chemistries identified in our in vivo screen have been evaluated in the cockroach and termite assays.

[9] = tested on: Ae. aegypti L3 larvae; details: 400 μM, three independent experiments
[10] = target: T1, Isdop2; assay: cAMP accumulation in HEK 293 cells transiently expressing Isdop2; format: cell-based; details: 10 μM biogenic amine, 300 nM propranolol, cAMP accumulation, mean±standard error
[11] = target: Isdop1 (Ixodes scapularis, UniProt A0ACM8FJJ0); assay: cAMP accumulation in HEK 293 cells transiently expressing Isdop1; format: cell-based; details: 10 μM biogenic amine, 300 nM propranolol, cAMP accumulation, mean±standard error
[12] = target: T2, AaDOP2; assay: AaDOP2 agonist screen against the LOPAC1280 library; format: cell-based; details: 10 μM compound; percent of response to 1 μM dihydrexidine
[13] = 0.5 h, read-out: percent mortality 0.5 hr, 400 uM, L3 larvae, value for this scoring time
[14] = 1 h, read-out: percent mortality 1 hr, 400 uM, L3 larvae, per scoring time
[15] = 2 h, read-out: percent mortality 2 hr, 400 uM, L3 larvae, per scoring time
[16] = 3 h, read-out: percent mortality 3 hr, 400 uM, L3 larvae, per scoring time
[17] = 4 h, read-out: percent mortality 4 hr, 400 uM, L3 larvae, per scoring time
[18] = 24 h, read-out: percent mortality 24 hr, 400 uM, L3 larvae, per scoring time
[19] = 48 h, read-out: Toxicity to Aedes aegypti larvae (mortality) 48 hours, 400 μM, L3 larvae, three independent experiments
[20] = 48 h, read-out: percent mortality 48 hr, 400 uM, L3 larvae, per scoring time
[21] = 72 h, read-out: Cumulative % Mortality (72 hrs), 400 uM, L3 larvae
[22] = 72 h, read-out: Toxicity to Aedes aegypti larvae (mortality) 72 hours, 400 μM, L3 larvae, three independent experiments
[23] = 72 h, read-out: percent mortality 72 hr, 400 uM, L3 larvae, per scoring time
[24] = 100 mM compound (Fipronil 500 μM), immersion, adult termite

## CCNC(=O)N1CCN(CCCC(c2ccc(F)cc2)c2ccc(F)cc2)CC1 [Amperozide, 4-[4,4-bis(4-fluorophenyl)butyl]-N-ethylpiperazine-1-carboxamide]
[1]
  % Mortality 24 hrs: 0%
  % Mortality 48 hrs: 0%
  % Mortality 72 hrs: 3%
  % Mortality 120 hrs: 7%
[2]; 0.5 h, read-out: mortality of the mosquito population within 30 minutes, 400 μM, L3 larvae
  mortality at 400 µM: > 70%
[2]; [13]
  mortality at 400 µM: 90%
[2]; [14]
  mortality at 400 µM: 0%
[2]; [15]
  mortality at 400 µM: 0%
[2]; [16]
  mortality at 400 µM: 0%
[2]; [17]
  mortality at 400 µM: 0%
[2]; [18]
  mortality at 400 µM: 0%
[2]; [19]
  mortality at 400 µM: 93%
[2]; [20]
  mortality at 400 µM: 0%
[2]; [21]
  mortality at 400 µM: 100%
[2]; [22]
  mortality at 400 µM: 93%
[2]; [23]
  mortality at 400 µM: 0%
[3]
  inhibition at 10 µM: 69%
[4]
  LT50: 42 min
[5]
  IC50: 570 ± 110 nM
[6]
  % of the SCH23390 effect: 83%
  % inhibition of DA activity (Aedes cell-based assay screen): 83%
[7]
  % Mortality 24 hrs: 0%
  % Mortality 48 hrs: 0%
  % Mortality 72 hrs: 0%
  % Mortality 120 hrs: 5%
  % Mortality 240 hrs: 5%
[8]; in vivo
  mortality of adult termites: 70-100%

## CN1C2CCC1CC(OC(c1ccccc1)c1ccccc1)C2 (stereo not drawn) [Benztropine, (3-endo)-3-(diphenylmethoxy)-8-methyl-8-azabicyclo[3.2.1]octane]
[2]; [13]
  mortality at 400 µM: 0%
[2]; [14]
  mortality at 400 µM: 0%
[2]; [15]
  mortality at 400 µM: 20%
[2]; [16]
  mortality at 400 µM: 0%
[2]; [17]
  mortality at 400 µM: 0%
[2]; [18]
  mortality at 400 µM: 40%
[2]; [19]
  mortality at 400 µM: 100%
[2]; [20]
  mortality at 400 µM: 0%
[2]; [21]
  mortality at 400 µM: 100%
[2]; [22]
  mortality at 400 µM: 100%
[2]; [23]
  mortality at 400 µM: 0%
[3]
  inhibition at 10 µM: 84%
[9]
  Toxicity to Aedes aegypti larvae (mortality) 24 hours: 100%

## CN(C)CCCN1c2ccccc2CCc2ccc(Cl)cc21 [Clomipramine]
[2]; 24 h, read-out: Toxicity to Aedes aegypti larvae (mortality) 24 hours, 400 μM, L3 larvae, three independent experiments
  mortality at 400 µM: 70 to 100%
[2]; [19]
  mortality at 400 µM: 93%
[2]; [22]
  mortality at 400 µM: 93%
[3]
  inhibition at 10 µM: 84%
[9]
  Toxicity to Aedes aegypti larvae (mortality) 24 hours: 70%

## N#Cc1nn(-c2c(Cl)cc(C(F)(F)F)cc2Cl)c(N)c1[S+]([O-])C(F)(F)F (centres unmarked) [Fipronil]
[8]; [24]
  % Mortality 24 hrs: 90%
  % Mortality 48 hrs: 100%
  % Mortality 72 hrs: 100%
  % Mortality 120 hrs: 100%
  % Mortality 240 hrs: 100%

## NCCc1c[nH]cn1 [Histamine]
[10]
  Stimulatory response (fold-over-basal) Isdop2: 1.55 ± 0.28 fold-over-basal
[11]
  Stimulatory response (fold-over-basal) Isdop1: 1.02 ± 0.10 fold-over-basal

## COC(=O)N(C(=O)N1CO[C@@]2(C(=O)OC)Cc3cc(Cl)ccc3C2=N1)c1ccc(OC(F)(F)F)cc1 [Indoxacarb]
[1]
  % Mortality 24 hrs: 63%
  % Mortality 48 hrs: 63%
  % Mortality 72 hrs: 80%
  % Mortality 120 hrs: 100%
[7]
  % Mortality 24 hrs: 50%
  % Mortality 48 hrs: 50%
  % Mortality 72 hrs: 70%
  % Mortality 120 hrs: 100%
  % Mortality 240 hrs: 100%

## CN1CCN(C2=Nc3ccccc3Oc3ccc(Cl)cc32)CC1 [Loxapine, 2-Chloro-11-(4-methylpiperazin-1-yl)dibenzo[b,f][1,4]oxazepine]
[2]; [13]
  mortality at 400 µM: 30%
[2]; [14]
  mortality at 400 µM: 0%
[2]; [15]
  mortality at 400 µM: 30%
[2]; 3 h, read-out: mortality within three hours, 400 μM, L3 larvae
  mortality at 400 µM: > 70%
[2]; [16]
  mortality at 400 µM: 0%
[2]; [17]
  mortality at 400 µM: 0%
[2]; [18]
  mortality at 400 µM: 0%
[2]; [19]
  mortality at 400 µM: 100%
[2]; [20]
  mortality at 400 µM: 0%
[2]; [21]
  mortality at 400 µM: 100%
[2]; [22]
  mortality at 400 µM: 100%
[2]; [23]
  mortality at 400 µM: 0%
[3]
  inhibition at 10 µM: 93%
[6]
  % of the SCH23390 effect: 97%
  % inhibition of DA activity (Aedes cell-based assay screen): 97%
[9]
  Toxicity to Aedes aegypti larvae (mortality) 24 hours: 97%

## CNCCCN1c2ccccc2CCc2ccc(Cl)cc21 [Norclomipramine]
[5]
  IC50: 670 ± 35 nM
[9]
  Toxicity to Aedes aegypti larvae (mortality) 24 hours: 40%
  Toxicity to Aedes aegypti larvae (mortality) 48 hours: 63%
  Toxicity to Aedes aegypti larvae (mortality) 72 hours: 70%

## CCCN1CCc2cccc3c2[C@H]1Cc1ccc(O)c(O)c1-3 [R(−)-Propyl-NPA]
[12]
  % of DHX: 68%

## Br.Cc1cccc(C2CN(C)CCc3c2cc(O)c(O)c3Cl)c1 (centres unmarked) [SKF 83959]
[3]
  % Inhibition (of response to dopamine), Isdop2 screen: 87%
[12]
  % of DHX: 30%

## Br.Oc1ccc(C2CNCc3sccc32)cc1O (centres unmarked) [SKF 89626]
[12]
  % of DHX: 101%

## NCCc1c[nH]c2ccc(O)cc12 [Serotonin, 5-hydroxytryptamine]
[10]
  Stimulatory response (fold-over-basal) Isdop2: 1.52 ± 0.20 fold-over-basal
[11]
  Stimulatory response (fold-over-basal) Isdop1: 1.06 ± 0.08 fold-over-basal

## NCCc1ccc(O)cc1 [Tyramine]
[10]
  Stimulatory response (fold-over-basal) Isdop2: 1.27 ± 0.22 fold-over-basal
[11]
  Stimulatory response (fold-over-basal) Isdop1: 1.34 ± 0.11 fold-over-basal

Reference: patent publication US20140350081A1, “INSECT G-COUPLED RECEPTORS USEFUL AS TARGETS FOR INSECTICIDES AND COMPOUNDS AND REAGENTS IDENTIFIED USING THE SAME” (priority 2011, published 2014)
